Tests used:
[1] = molecular target: T1, Calcium/calmodulin-dependent protein kinase type IV (Homo sapiens) (UniProt Q16566); conditions: at 10 µM
T1 sequence (whole entry): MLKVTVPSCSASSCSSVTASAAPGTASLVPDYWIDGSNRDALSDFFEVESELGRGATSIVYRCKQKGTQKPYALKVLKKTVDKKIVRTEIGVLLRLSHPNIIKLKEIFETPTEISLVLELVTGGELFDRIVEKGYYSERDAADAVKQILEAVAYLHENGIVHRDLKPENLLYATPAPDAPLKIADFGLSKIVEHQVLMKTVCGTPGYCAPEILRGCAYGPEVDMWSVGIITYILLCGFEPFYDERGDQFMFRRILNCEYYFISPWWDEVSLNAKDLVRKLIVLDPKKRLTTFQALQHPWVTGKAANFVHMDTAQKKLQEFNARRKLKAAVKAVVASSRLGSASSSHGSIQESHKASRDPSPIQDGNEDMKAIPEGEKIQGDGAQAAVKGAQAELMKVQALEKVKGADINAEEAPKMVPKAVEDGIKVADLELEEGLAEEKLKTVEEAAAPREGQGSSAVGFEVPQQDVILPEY

[2] = molecular target: Serine/threonine-protein kinase PLK3 (Homo sapiens, UniProt Q9H4B4); test: Selectivity interaction (ProQinase) EUB0000171b PLK3
[3] = molecular target: T2, Serine/threonine-protein kinase LATS2 (Homo sapiens) (UniProt Q9NRM7); test: Selectivity interaction (KinomeScan (DiscoverX)) EUB0001049a LATS2; conditions: at 1 µM
T2 sequence (whole entry): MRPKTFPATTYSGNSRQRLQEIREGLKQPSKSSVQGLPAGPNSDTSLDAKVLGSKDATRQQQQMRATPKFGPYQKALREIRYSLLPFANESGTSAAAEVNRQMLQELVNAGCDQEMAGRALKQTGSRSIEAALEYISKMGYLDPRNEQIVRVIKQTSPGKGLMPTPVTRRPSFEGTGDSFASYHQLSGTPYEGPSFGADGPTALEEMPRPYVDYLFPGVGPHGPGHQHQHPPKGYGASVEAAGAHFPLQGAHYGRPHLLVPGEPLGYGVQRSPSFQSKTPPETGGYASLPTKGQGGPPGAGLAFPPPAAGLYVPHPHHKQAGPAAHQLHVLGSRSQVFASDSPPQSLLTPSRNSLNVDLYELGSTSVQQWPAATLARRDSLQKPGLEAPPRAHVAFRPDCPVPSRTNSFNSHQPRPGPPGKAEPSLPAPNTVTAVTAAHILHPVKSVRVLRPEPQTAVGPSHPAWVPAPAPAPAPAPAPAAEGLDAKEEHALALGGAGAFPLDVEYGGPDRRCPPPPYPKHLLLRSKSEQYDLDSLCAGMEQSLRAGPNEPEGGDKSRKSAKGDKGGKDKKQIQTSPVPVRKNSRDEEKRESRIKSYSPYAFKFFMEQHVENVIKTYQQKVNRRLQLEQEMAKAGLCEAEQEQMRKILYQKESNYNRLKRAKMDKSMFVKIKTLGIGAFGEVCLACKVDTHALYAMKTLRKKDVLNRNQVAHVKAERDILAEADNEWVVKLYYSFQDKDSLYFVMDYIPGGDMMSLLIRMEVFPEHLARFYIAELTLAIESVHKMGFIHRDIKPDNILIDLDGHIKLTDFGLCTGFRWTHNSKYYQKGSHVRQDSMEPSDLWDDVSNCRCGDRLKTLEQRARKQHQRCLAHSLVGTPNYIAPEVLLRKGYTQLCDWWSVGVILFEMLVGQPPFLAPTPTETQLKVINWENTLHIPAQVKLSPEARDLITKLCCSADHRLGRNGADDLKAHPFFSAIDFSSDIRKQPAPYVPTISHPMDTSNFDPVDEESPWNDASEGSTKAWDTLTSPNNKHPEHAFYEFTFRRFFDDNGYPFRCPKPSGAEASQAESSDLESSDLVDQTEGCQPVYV

[4] = molecular target: T3, Interleukin-1 receptor-associated kinase 4 (Homo sapiens) (UniProt Q9NWZ3); test: Selectivity interaction (KinomeScan (DiscoverX)) EUB0001049a IRAK4; conditions: at 1 µM
T3 sequence (whole entry): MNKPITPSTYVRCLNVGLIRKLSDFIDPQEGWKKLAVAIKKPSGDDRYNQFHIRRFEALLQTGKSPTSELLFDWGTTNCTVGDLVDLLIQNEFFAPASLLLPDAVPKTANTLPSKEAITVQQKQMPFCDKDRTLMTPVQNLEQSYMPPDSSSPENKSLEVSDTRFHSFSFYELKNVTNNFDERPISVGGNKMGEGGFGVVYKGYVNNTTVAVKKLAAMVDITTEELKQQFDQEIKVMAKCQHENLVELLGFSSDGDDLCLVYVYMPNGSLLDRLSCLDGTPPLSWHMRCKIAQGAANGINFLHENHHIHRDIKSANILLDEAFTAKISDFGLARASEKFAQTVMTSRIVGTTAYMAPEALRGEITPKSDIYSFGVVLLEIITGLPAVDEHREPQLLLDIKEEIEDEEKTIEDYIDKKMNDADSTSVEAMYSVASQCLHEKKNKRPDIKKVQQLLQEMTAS

[5] = molecular target: Serine/threonine-protein kinase PAK 1 (Homo sapiens) (UniProt Q13153); test: Selectivity interaction (Ambit KINOMEscan and KiNATiv profiling in Jurkat cells) EUB0000090b PAK1; format: cell-based; conditions: at 1 µM
[6] = molecular target: Serine/threonine-protein kinase pim-1 (Homo sapiens, UniProt P11309); conditions: at 10 µM
Chain of Serine/threonine-protein kinase pim-1 (P11309 whole entry, looked up): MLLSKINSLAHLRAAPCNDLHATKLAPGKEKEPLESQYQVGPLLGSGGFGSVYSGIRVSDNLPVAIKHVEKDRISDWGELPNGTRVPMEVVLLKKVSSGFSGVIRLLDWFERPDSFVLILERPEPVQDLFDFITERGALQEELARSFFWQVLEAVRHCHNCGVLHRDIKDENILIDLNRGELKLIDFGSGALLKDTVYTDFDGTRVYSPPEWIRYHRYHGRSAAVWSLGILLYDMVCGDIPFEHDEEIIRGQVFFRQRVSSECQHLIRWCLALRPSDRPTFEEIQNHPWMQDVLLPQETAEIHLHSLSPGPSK

Chain of Serine/threonine-protein kinase PLK3 (Q9H4B4 whole entry, looked up): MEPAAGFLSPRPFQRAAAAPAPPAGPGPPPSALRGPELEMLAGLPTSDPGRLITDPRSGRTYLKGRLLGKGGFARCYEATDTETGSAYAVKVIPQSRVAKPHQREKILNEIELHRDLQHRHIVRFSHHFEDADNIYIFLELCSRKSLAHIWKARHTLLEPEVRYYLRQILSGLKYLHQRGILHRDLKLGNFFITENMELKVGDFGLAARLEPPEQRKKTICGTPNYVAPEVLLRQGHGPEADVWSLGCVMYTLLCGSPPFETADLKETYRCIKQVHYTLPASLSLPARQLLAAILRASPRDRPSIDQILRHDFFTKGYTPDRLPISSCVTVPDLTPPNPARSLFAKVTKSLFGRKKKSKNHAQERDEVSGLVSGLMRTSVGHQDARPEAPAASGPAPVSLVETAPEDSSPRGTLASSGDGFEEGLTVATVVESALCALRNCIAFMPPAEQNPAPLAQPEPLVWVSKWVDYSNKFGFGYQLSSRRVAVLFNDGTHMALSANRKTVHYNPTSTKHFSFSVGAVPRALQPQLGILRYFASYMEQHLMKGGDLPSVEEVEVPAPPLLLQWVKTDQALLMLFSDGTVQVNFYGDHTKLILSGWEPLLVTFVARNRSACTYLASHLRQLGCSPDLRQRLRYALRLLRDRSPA
Chain of Serine/threonine-protein kinase PAK 1 (Homo sapiens) (Q13153 whole entry): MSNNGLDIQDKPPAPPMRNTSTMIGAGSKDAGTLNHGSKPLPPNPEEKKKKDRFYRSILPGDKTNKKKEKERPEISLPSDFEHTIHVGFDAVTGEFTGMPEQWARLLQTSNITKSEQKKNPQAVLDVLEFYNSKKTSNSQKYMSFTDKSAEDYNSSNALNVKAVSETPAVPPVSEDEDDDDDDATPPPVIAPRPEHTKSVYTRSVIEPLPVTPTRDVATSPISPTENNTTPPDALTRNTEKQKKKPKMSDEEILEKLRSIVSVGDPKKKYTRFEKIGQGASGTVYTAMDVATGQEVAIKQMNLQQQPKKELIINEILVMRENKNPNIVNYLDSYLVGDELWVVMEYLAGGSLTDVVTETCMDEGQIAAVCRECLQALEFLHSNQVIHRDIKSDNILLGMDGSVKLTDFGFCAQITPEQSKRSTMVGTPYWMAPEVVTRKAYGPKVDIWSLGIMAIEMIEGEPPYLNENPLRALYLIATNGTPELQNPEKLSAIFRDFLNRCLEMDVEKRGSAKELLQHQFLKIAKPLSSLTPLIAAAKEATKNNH

Question: How did the % of control [1] turn out when `CCN(CC)CCCCNc1ncc2cc(-c3cc(OC)cc(OC)c3)c(NC(=O)NC(C)(C)C)nc2n1` was run?
Answer: 100%

Question: For `C=CC(=O)Nc1cccc(C(=O)Nc2ccc(Nc3cc(-c4[nH]c(SC)nc4C)ccn3)cc2)c1`, which % of control ([2]; at 1 µM) is on record?
Answer: 103%

Question: And the % of control ([2]; at 5 µM)?
Answer: 75%

Question: For `COc1cc(Nc2nc(C)cc(-c3cnn4nc(OC)ccc34)n2)cc(C(F)(F)F)c1`, which % of control [3] is on record?
Answer: 71%

Question: And the % of control [4]?
Answer: 87%

Question: How did the % of control [5] turn out when `CN(C)C/C=C/C(=O)Nc1ccc(C(=O)N2CCCC(Nc3ncc(Cl)c(-c4c[nH]c5ccccc45)n3)C2)cc1` (configuration not stated) was run?
Answer: 83%

Question: With `Cc1cc([C@@H](C)Nc2ccccc2C(=O)O)c2nc(N3CCOCC3)cc(=O)n2c1` [AZD-6482] as the molecule, how does the % of control [6] read?
Answer: 100%
